# BindingDB's records for doi:10.1016/s0014-2999(02)02124-6 (Schering-Plough Research Institute, 2002)
# Assays:
# [1] = molecular target: Substance-P receptor (Homo sapiens, UniProt P25103)
# [2] = molecular target: T1, Substance-K receptor (Homo sapiens, UniProt P21452)
# T1 sequence (P21452 whole entry): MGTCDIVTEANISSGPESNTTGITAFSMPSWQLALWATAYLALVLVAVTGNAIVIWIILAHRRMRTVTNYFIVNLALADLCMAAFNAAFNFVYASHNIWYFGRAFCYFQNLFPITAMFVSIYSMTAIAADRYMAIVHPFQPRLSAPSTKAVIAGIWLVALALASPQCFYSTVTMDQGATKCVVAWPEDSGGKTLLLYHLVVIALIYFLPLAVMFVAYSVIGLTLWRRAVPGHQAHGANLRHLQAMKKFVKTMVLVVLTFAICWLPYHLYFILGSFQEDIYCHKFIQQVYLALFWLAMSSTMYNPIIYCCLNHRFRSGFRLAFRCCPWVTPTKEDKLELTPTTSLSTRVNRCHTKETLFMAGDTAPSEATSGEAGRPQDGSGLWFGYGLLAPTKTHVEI
# [3] = molecular target: T2, Neuromedin-K receptor (Homo sapiens, UniProt P29371)
# T2 sequence (P29371 whole entry): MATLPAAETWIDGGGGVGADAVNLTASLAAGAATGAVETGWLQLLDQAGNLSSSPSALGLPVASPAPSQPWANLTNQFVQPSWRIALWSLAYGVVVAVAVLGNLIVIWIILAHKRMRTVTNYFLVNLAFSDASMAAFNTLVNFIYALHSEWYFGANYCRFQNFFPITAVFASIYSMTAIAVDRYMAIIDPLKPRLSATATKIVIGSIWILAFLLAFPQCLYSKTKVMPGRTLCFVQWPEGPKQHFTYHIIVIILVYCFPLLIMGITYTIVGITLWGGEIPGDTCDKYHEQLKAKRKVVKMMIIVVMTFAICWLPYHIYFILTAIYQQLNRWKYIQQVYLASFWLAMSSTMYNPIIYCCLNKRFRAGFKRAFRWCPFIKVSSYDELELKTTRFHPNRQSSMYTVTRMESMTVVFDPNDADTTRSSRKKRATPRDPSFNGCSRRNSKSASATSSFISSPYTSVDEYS
# Substance-P receptor, sequence (P25103 whole entry): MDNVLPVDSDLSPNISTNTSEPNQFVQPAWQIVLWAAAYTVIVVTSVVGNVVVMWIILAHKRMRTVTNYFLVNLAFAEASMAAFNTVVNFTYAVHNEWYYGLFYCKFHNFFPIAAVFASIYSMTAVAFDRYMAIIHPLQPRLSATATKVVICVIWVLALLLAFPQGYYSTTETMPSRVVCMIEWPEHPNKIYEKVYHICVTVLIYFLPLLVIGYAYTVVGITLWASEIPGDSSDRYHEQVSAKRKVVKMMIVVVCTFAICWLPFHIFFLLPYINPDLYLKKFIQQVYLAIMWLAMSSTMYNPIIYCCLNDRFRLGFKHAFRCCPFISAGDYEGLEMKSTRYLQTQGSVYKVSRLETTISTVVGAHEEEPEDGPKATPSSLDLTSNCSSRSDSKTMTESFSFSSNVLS
Ki [1],Ki [2],Ki [3],SMILES
273 nM,0.4 nM,1280 nM,CC(=O)NC1(c2ccccc2)CCN(CCC(CN(C)C(=O)c2ccccc2)c2ccc(Cl)c(Cl)c2)CC1 (stereo not drawn) [SR 48968]
–,> 10000 nM,> 10000 nM,COc1ccccc1CN[C@H]1CCCN[C@H]1c1ccccc1 [(+/-)(2-Methoxy-benzyl)-(2-phenyl-piperidin-3-yl)-amine]
1.3 nM,0.4 nM,0.3 nM,CNC(=O)CC1CCCN(C2CCN(CC[C@@H](/C(CN(C)C(=O)c3cc(Cl)cc(Cl)c3)=N/OC)c3ccc(Cl)c(Cl)c3)CC2)C1=O (stereo partly drawn)
